Data: patent publication US20240415819A1, “MACROCYCLIC COMPOUNDS AS PROTEASOME SUBUNIT BETA TYPE-5 INHIBITORS” (Lead Discovery Center GmbH, priority 2021, published 2024)
Where two headings read alike, the source gives them in different places.

What was measured:
[1] = target: T1, β5 subunit of the human constitutive proteasome (CPS) (Homo sapiens, UniProt P28074); experiment: β5 inhibition assay, human constitutive proteasome (Suc-LLVY-AMC); format: biochemical; conditions: IC50 class, Suc-LLVY-AMC substrate
T1 construct: purchased Boston Biochem E-360
Protocol: The enzymatic activity of the β5 subunit of the human constitutive proteasome (CPS) is analyzed. In another assay, which differs from the assay of the human constitutive proteasome only in using the human immunoproteasome (IPS) the enzymatic activity of the β5 subunit of the human immunoproteasome (IPS) is analyzed. […] Inhibition is indicated as IC50 [nM] (“-”=not measured).

[2] = tested on: HT-29 cells; experiment: CellTiter-Glo luminescent cell viability assay with HT-29 cells (72h incubation); format: cell-based, human; conditions: Homo sapiens, HT-29, HT29 cells, read-out: CTG HT29
How it was run: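 Viability read as CellTiter-Glo luminescence after 72 h compound exposure, with 10 μM staurosporine and DMSO as control wells. Seeding 400 cells per well, compound added 24 h post-plating; IC50 from curve fitting.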

[3] = tested on: A549 (human lung carcinoma cell line); experiment: Glo assay of A549 cells (Table 3; ProteasomeGlo plating scheme); format: cell-based; conditions: Homo sapiens
How it was run: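 Luminescent read-out of cellular chymotrypsin-like proteasome activity: cells exposed to compound 105 min at 37° C., 5% CO2, then given Suc-LLVY-Glo reagent, shaken 2-5 min and kept dark 10-15 min before reading. Values are IC50 [nM].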

[4] = A549 cells, read-out: PGLo A549

Row | SMILES | IC50 [1] | IC50 [2] | IC50 [3, 4] | IC50 ([3]; A549, read-out: PGLo A549 [nM])
1 | COCCOCCOCCOC(=O)N[C@H]1CC(=O)N2CCCC(CCOc3ccc(C)c(c3)CNC(=O)[C@H](CCc3ccccc3)NC1=O)C2 (stereo partly drawn) [Compound 220, 2-(2-(2-methoxyethoxy)ethoxy)ethyl ((9R,12R)-5^4-methyl-8,11,14-trioxo-9-phenethyl-4-oxa-7,10-diaza-1(3,1)-piperidina-5(1,3)-benzenacyclotetradecaphane-12-yl)carbamate] | < 100 nM | < 100 nM |  | < 100 nM
2 | CC(=O)N[C@H]1CCC(=O)N2CCCC(CCOc3ccc(C)c(c3)CNC(=O)[C@H](CCc3ccccc3)NC1=O)C2 (stereo partly drawn) [Compound 215, N-((9S,12S)-5^4-methyl-8,11,15-trioxo-9-phenethyl-4-oxa-7,10-diaza-1(3,1)-piperidina-5(1,3)-benzenacyclopentadecaphane-12-yl)acetamide] | < 100 nM | < 100 nM | 100 to 500 nM | 
3 | COc1ccc2cc1CNC(=O)[C@H](CCc1ccccc1)NC(=O)[C@@H](NC(C)=O)CC(=O)N1CCCC(CCO2)C1 (stereo partly drawn) [Compound 211, N-((9S,12S)-5^4-methoxy-8,11,14-trioxo-9-phenethyl-4-oxa-7,10-diaza-1(3,1)-piperidina-5(1,3)-benzenacyclotetradecaphane-12-yl)acetamide] | 100 to 500 nM | 100 to 500 nM | 500 to 1000 nM | 
4 | CC(=O)N[C@H]1CCCC(=O)N2CCOC(CCOc3ccc(C)c(c3)CNC(=O)[C@H](CCc3ccccc3)NC1=O)C2 (stereo partly drawn) [Compound 186, N-((9S,12S)-5^4-methyl-8,11,16-trioxo-9-phenethyl-4-oxa-7,10-diaza-1(2,4)-morpholina-5(1,3)-benzenacyclohexadecaphane-12-yl)acetamide] | < 100 nM | 100 to 500 nM | 100 to 500 nM | 
5 | Cc1ccc2cc1CNC(=O)[C@H](CCc1ccccc1)NC(=O)[C@@H](NC(=O)C1CCC(C(F)(F)F)N1)CC(=O)N1CCCC(CCO2)C1 (stereo partly drawn) [Compound 157, N-((9S,12S)-5^4-methyl-8,11,14-trioxo-9-phenethyl-4-oxa-7,10-diaza-1(3,1)-piperidina-5(1,3)-benzenacyclotetradecaphane-12-yl)-5-(trifluoromethyl)pyrrolidine-2-carboxamide] | < 100 nM | < 100 nM | 100 to 500 nM | 
6 | Cc1ccc2cc1CNC(=O)[C@H](Cc1c[nH]c3ccccc13)NC(=O)CCC(=O)N1CCCC(CCO2)C1 (stereo partly drawn) [Compound 77, (9S)-9-((1H-indol-3-yl)methyl)-5^4-methyl-4-oxa-7,10-diaza-1(3,1)-piperidina-5(1,3)-benzenacyclotetradecaphane-8,11,14-trione] | < 100 nM | 1000 to 5000 nM | 500 to 1000 nM | 
7 | CC(=O)N[C@H]1CCC(=O)N2CCOC(CCOc3ccc(C)c(c3)CNC(=O)[C@H](CCc3ccccc3)NC1=O)C2 (stereo partly drawn) [Compound 143, N-((9S,12S)-5^4-methyl-8,11,15-trioxo-9-phenethyl-4-oxa-7,10-diaza-1(2,4)-morpholina-5(1,3)-benzenacyclopentadecaphane-12-yl)acetamide] | < 100 nM | 100 to 500 nM | 100 to 500 nM | 
8 | Cc1ccc2cc1CNC(=O)[C@H](CCc1ccccc1)NC(=O)[C@@H](NC(=O)C1(C)COC1)CC(=O)N1CCCC(CCO2)C1 (stereo partly drawn) [Compound 287, 3-methyl-N-((9S,12S)-5^4-methyl-8,11,14-trioxo-9-phenethyl-4-oxa-7,10-diaza-1(3,1)-piperidina-5(1,3)-benzenacyclotetradecaphane-12-yl)oxetane-3-carboxamide] | < 100 nM | < 100 nM | < 100 nM | 
9 | Cc1ccc2cc1CNC(=O)[C@H](CCc1ccccc1)NC(=O)[C@@H](NC(=O)OCc1ccccc1)CCC(=O)N1CCCC(CCO2)C1 (stereo partly drawn) [Compound 199, benzyl ((9S,12S)-5^4-methyl-8,11,15-trioxo-9-phenethyl-4-oxa-7,10-diaza-1(3,1)-piperidina-5(1,3)-benzenacyclopentadecaphane-12-yl)carbamate] | < 100 nM | < 100 nM | < 100 nM | 
10 | CC(=O)N[C@H]1CCC(=O)N(C)CCCCOc2ccc(C)c(c2)CNC(=O)[C@H](CCc2ccccc2)NC1=O [Compound 282, N-((11S,14S)-1^4,7-dimethyl-8,12,15-trioxo-1^4-phenethyl-2-oxa-7,13,16-triaza-1(1,3)-benzenacycloheptadecaphane-11-yl)acetamide] | > 5000 nM | 100 to 500 nM | > 5000 nM | 
11 | CC(=O)N[C@H]1CCC(=O)N2CCCC(C2)Oc2ccc(C)c(c2)CNC(=O)[C@H](CCc2ccccc2)NC1=O (stereo partly drawn) [Compound 148, N-((7S,10S)-3^4-methyl-6,9,13-trioxo-7-phenethyl-2-oxa-5,8-diaza-1(3,1)-piperidina-3(1,3)-benzenacyclotridecaphane-10-yl)acetamide] | 1000 to 5000 nM | 100 to 500 nM | > 5000 nM | 
12 | Cc1ccc2cc1CNC(=O)[C@H](CCc1ccccc1)NC(=O)[C@@H](NC(=O)C1(C)CCNCC1)CC(=O)N1CCCC(CCO2)C1 (stereo partly drawn) [Compound 136, 4-methyl-N-((9S,12S)-5^4-methyl-8,11,14-trioxo-9-phenethyl-4-oxa-7,10-diaza-1(3,1)-piperidina-5(1,3)-benzenacyclotetradecaphane-12-yl)piperidine-4-carboxamide] | < 100 nM | 100 to 500 nM | < 100 nM | 
13 | Cc1ccc2cc1CNC(=O)[C@H](CCc1ccccc1)NC(=O)[C@@H](NC(=O)CN1CCOCC1)CC(=O)N1CCCC(CCO2)C1 (stereo partly drawn) [Compound 88, N-((9S,12S)-5^4-methyl-8,11,14-trioxo-9-phenethyl-4-oxa-7,10-diaza-1(3,1)-piperidina-5(1,3)-benzenacyclotetradecaphane-12-yl)-2-morpholinoacetamide] | < 100 nM | < 100 nM | < 100 nM | 

Second part, led by results:

Row | IC50 [1] | IC50 [2] | IC50 [3, 4] | SMILES | IC50 ([3]; A549, read-out: PGLo A549 [nM])
14 | < 100 nM | < 100 nM | < 100 nM | Cc1ccc2cc1CNC(=O)[C@H](CCc1ccccc1)NC(=O)[C@@H](NC(=O)C1CCCc3ccccc31)CC(=O)N1CCCC(CCO2)C1 (stereo partly drawn) [Compound 82, N-((9S,12S)-5^4-methyl-8,11,14-trioxo-9-phenethyl-4-oxa-7,10-diaza-1(3,1)-piperidina-5(1,3)-benzenacyclotetradecaphane-12-yl)-1,2,3,4-tetrahydronaphthalene-1-carboxamide] | 
15 | < 100 nM | < 100 nM | < 100 nM | Cc1ccc2cc1CNC(=O)[C@H](CCc1ccccc1)NC(=O)[C@@H](NC(=O)c1ccncc1)CC(=O)N1CCCC(CCO2)C1 (stereo partly drawn) [Compound 42, N-((9S,12S)-5^4-methyl-8,11,14-trioxo-9-phenethyl-4-oxa-7,10-diaza-1(3,1)-piperidina-5(1,3)-benzenacyclotetradecaphane-12-yl)isonicotinamide] | 
16 | < 100 nM | < 100 nM | 100 to 500 nM | Cc1ccc2cc1CNC(=O)[C@H](CCc1ccccc1)NC(=O)[C@@H](NC(=O)C(C)(CO)CO)CC(=O)N1CCCC(CCO2)C1 (stereo partly drawn) [Compound 286, 3-hydroxy-2-(hydroxymethyl)-2-methyl-N-((9S,12S)-5^4-methyl-8,11,14-trioxo-9-phenethyl-4-oxa-7,10-diaza-1(3,1)-piperidina-5(1,3)-benzenacyclotetradecaphane-12-yl)propanamide] | 
17 | < 100 nM | < 100 nM | < 100 nM | Cc1ccc2cc1CNC(=O)[C@H](CCc1ccccc1)NC(=O)[C@@H](NC(=O)[C@@H](C)c1ccccc1)CC(=O)N1CCCC(CCO2)C1 (stereo partly drawn) [Compound 81, (2S)-N-((9S,12S)-5^4-methyl-8,11,14-trioxo-9-phenethyl-4-oxa-7,10-diaza-1(3,1)-piperidina-5(1,3)-benzenacyclotetradecaphane-12-yl)-2-phenylpropanamide] | 
18 | < 100 nM | < 100 nM | 100 to 500 nM | Cc1ccc2cc1CNC(=O)[C@H](CCc1ccccc1)NC(=O)[C@@H](NS(=O)(=O)Cc1ccccc1)CC(=O)N1CCCC(CCO2)C1 (stereo partly drawn) [Compound 216, N-((9S,12S)-5^4-methyl-8,11,14-trioxo-9-phenethyl-4-oxa-7,10-diaza-1(3,1)-piperidina-5(1,3)-benzenacyclotetradecaphane-12-yl)-1-phenylmethanesulfonamide] | 
19 | < 100 nM | < 100 nM | < 100 nM | COc1ccc(CC(=O)N[C@H]2CC(=O)N3CCCC(CCOc4ccc(C)c(c4)CNC(=O)[C@H](CCc4ccccc4)NC2=O)C3)cc1 (stereo partly drawn) [Compound 83, 2-(4-methoxyphenyl)-N-((9S,12S)-5^4-methyl-8,11,14-trioxo-9-phenethyl-4-oxa-7,10-diaza-1(3,1)-piperidina-5(1,3)-benzenacyclotetradecaphane-12-yl)acetamide] | 
20 | < 100 nM | < 100 nM | < 100 nM | Cc1ccc2cc1CNC(=O)[C@H](CCc1ccccc1)NC(=O)[C@@H](NC(=O)CCc1cccc(F)c1)CC(=O)N1CCCC(CCO2)C1 (stereo partly drawn) [Compound 25, 3-(3-fluorophenyl)-N-((9S,12S)-5^4-methyl-8,11,14-trioxo-9-phenethyl-4-oxa-7,10-diaza-1(3,1)-piperidina-5(1,3)-benzenacyclotetradecaphane-12-yl)propanamide] | 
21 | < 100 nM | < 100 nM | < 100 nM | Cc1ccc2cc1CNC(=O)[C@H](CCc1ccccc1)NC(=O)[C@@H](NC(=O)Cc1cccc(N)c1)CC(=O)N1CCCC(CCO2)C1 (stereo partly drawn) [Compound 127, 2-(3-aminophenyl)-N-((9S,12S)-5^4-methyl-8,11,14-trioxo-9-phenethyl-4-oxa-7,10-diaza-1(3,1)-piperidina-5(1,3)-benzenacyclotetradecaphane-12-yl)acetamide] | 
